Toxic doses and inconclusive results are not listed. The calls were made as follows: active = survival T/C of 150% or more; inactive = T/C below 125% in these data.
System: CD2F1 mice, L1210 leukemia ip, survival T/C
Assay: NCI In Vivo Anticancer Drug Screen. Data for tumor model L1210 Leukemia (intraperitoneal) in CD2F1 (CDF1) mice
Details: higher = longer survival
Summary of the method: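 Activity against a transplanted murine tumor was judged by comparing the compound group with a vehicle group. The outcome in the treated animals was divided by that in the controls.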

[1] = endpoint: mean survival time, dose: 100.0 mg/kg/injection, schedule: Q01DX009 (ip), vehicle: saline with Tween-80
[2] = endpoint: mean survival time, dose: 100.0 mg/kg/injection, schedule: Q04DX003 (ip), vehicle: saline with Tween-80
[3] = endpoint: mean survival time, dose: 200.0 mg/kg/injection, schedule: Q01DX009 (ip), vehicle: saline with Tween-80
[4] = endpoint: mean survival time, dose: 200.0 mg/kg/injection, schedule: Q04DX003 (ip), vehicle: saline with Tween-80
[5] = endpoint: mean survival time, dose: 400.0 mg/kg/injection, schedule: Q04DX003 (ip), vehicle: saline with Tween-80
[6] = endpoint: mean survival time, dose: 12.5 mg/kg/injection, schedule: Q01DX009 (ip), vehicle: saline
[7] = endpoint: mean survival time, dose: 25.0 mg/kg/injection, schedule: Q01DX009 (ip), vehicle: saline
[8] = endpoint: mean survival time, dose: 50.0 mg/kg/injection, schedule: Q01DX009 (ip), vehicle: saline with Tween-80
[9] = endpoint: mean survival time, dose: 50.0 mg/kg/injection, schedule: Q01DX009 (ip), vehicle: saline
[10] = endpoint: mean survival time, dose: 100.0 mg/kg/injection, schedule: Q01DX009 (ip), vehicle: saline
[11] = endpoint: mean survival time, dose: 75.0 mg/kg/injection, schedule: Q01DX001 (ip), vehicle: other
[12] = endpoint: mean survival time, dose: 150.0 mg/kg/injection, schedule: Q01DX001 (ip), vehicle: other
[13] = endpoint: mean survival time, dose: 100.0 mg/kg/injection, schedule: Q04DX002 (ip), vehicle: saline with Tween-80

Measured: T/C

O=P(O)(O)C1c2ccccc2-c2ccccc21
inactive: [1] 100 % of control | [2] 97 % of control | [3] 94 % of control | [4] 96 % of control | [5] 100 % of control

CC(C)=CCC/C(C)=C/COc1ccc(/C=C2/C(=O)N(O)[C@@H](C)C(=O)N2O)cc1
inactive: endpoint: mean survival time, dose: 1.56 mg/kg/injection, schedule: Q01DX009 (ip), vehicle: saline with Tween-80 101 % of control | endpoint: mean survival time, dose: 3.12 mg/kg/injection, schedule: Q01DX009 (ip), vehicle: saline with Tween-80 96 % of control | endpoint: mean survival time, dose: 3.12 mg/kg/injection, schedule: Q01DX009 (ip), vehicle: saline 94 % of control | endpoint: mean survival time, dose: 6.25 mg/kg/injection, schedule: Q01DX009 (ip), vehicle: saline with Tween-80 101 % of control | endpoint: mean survival time, dose: 6.25 mg/kg/injection, schedule: Q01DX009 (ip), vehicle: saline 96 % of control | endpoint: mean survival time, dose: 12.5 mg/kg/injection, schedule: Q01DX009 (ip), vehicle: saline with Tween-80 101 % of control | [6] 100 % of control | endpoint: mean survival time, dose: 25.0 mg/kg/injection, schedule: Q01DX009 (ip), vehicle: saline with Tween-80 106 % of control | [7] 108 % of control | [8] 112 % of control | [9] 100 % of control | [10] 100 % of control

CC(C)[C@](O)(C(=O)OCC1=CCN2CC[C@@H](O)[C@@H]12)[C@H](C)O
inactive: endpoint: median survival time, dose: 12.5 mg/kg/injection, schedule: Q01DX009 (ip), vehicle: water 103 % of control | endpoint: median survival time, dose: 25.0 mg/kg/injection, schedule: Q01DX009 (ip), vehicle: water 100 % of control | endpoint: median survival time, dose: 50.0 mg/kg/injection, schedule: Q01DX009 (ip), vehicle: water 98 % of control | endpoint: median survival time, dose: 100.0 mg/kg/injection, schedule: Q01DX009 (ip), vehicle: water 122 % of control | endpoint: median survival time, dose: 200.0 mg/kg/injection, schedule: Q01DX009 (ip), vehicle: water 112 % of control | endpoint: median survival time, dose: 400.0 mg/kg/injection, schedule: Q01DX009 (ip), vehicle: water 112 % of control

O=C(Nc1ccccc1Cl)c1ccc([N+](=O)[O-])cc1
inactive: [1] 94 % of control | [2] 96 % of control | [3] 97 % of control | [4] 96 % of control | endpoint: mean survival time, dose: 400.0 mg/kg/injection, schedule: Q01DX009 (ip), vehicle: saline with Tween-80 97 % of control | [5] 93 % of control

O=[N+]([O-])c1ccc(CNc2ncnc3c2ncn3C2OC(CO)C(O)C2O)cc1 (stereo not drawn)
inactive: [11] 106 % of control | [12] 112 % of control | endpoint: mean survival time, dose: 300.0 mg/kg/injection, schedule: Q01DX001 (ip), vehicle: other 100 % of control

COc1ccccc1NC(=O)OCC#CCOC(=O)Nc1ccccc1OC
inactive: endpoint: mean survival time, dose: 100.0 mg/kg/injection, schedule: Q01DX009 (ip), vehicle: Klucel (hydroxypropylcellulose) (HPC) 91 % of control | endpoint: mean survival time, dose: 200.0 mg/kg/injection, schedule: Q01DX009 (ip), vehicle: Klucel (hydroxypropylcellulose) (HPC) 91 % of control | endpoint: mean survival time, dose: 400.0 mg/kg/injection, schedule: Q01DX009 (ip), vehicle: Klucel (hydroxypropylcellulose) (HPC) 92 % of control

COc1ccc(NC(=O)Nc2ccccc2OC)c(OC)c1
inactive: [13] 94 % of control | endpoint: mean survival time, dose: 200.0 mg/kg/injection, schedule: Q04DX002 (ip), vehicle: saline with Tween-80 94 % of control | endpoint: mean survival time, dose: 400.0 mg/kg/injection, schedule: Q04DX002 (ip), vehicle: saline with Tween-80 87 % of control

CCCCOC(=O)c1ccccn1
inactive: [8] 101 % of control | [1] 95 % of control | [3] 98 % of control

CC(=O)C(CN(C)C)C(C)=O
inactive: [11] 106 % of control | [12] 106 % of control

O=C(O)C1(Br)CCC1
inactive: endpoint: mean survival time, dose: 12.5 mg/kg/injection, schedule: Q01DX005 (ip), vehicle: saline with Tween-80 89 % of control | [6] 100 % of control | endpoint: mean survival time, dose: 25.0 mg/kg/injection, schedule: Q01DX005 (ip), vehicle: saline with Tween-80 101 % of control | [7] 89 % of control | endpoint: mean survival time, dose: 50.0 mg/kg/injection, schedule: Q01DX005 (ip), vehicle: saline with Tween-80 108 % of control | [9] 93 % of control | endpoint: mean survival time, dose: 50.0 mg/kg/injection, schedule: Q04DX002 (ip), vehicle: saline with Tween-80 97 % of control | endpoint: mean survival time, dose: 100.0 mg/kg/injection, schedule: Q01DX005 (ip), vehicle: saline with Tween-80 97 % of control | [10] 89 % of control | [13] 94 % of control

Reference: PubChem BioAssay AID256 (DTP/NCI, 2004)
